From patent publication US7485651B2, “Compounds with activity on muscarinic receptors” (Acadia Pharmaceuticals, Inc., priority 1998, dated 2009)

Key:
m4 receptor = target: T1, m4 receptor (Homo sapiens, UniProt P08173); test: NIH 3T3 cells transfected with m4 muscarinic receptor and Gq-i5; assay type: cell-based
T1 construct: expressed in transfected cells; host or cells: NIH 3T3 (ATCC CRL 1658)
T1 sequence (P08173 1-479): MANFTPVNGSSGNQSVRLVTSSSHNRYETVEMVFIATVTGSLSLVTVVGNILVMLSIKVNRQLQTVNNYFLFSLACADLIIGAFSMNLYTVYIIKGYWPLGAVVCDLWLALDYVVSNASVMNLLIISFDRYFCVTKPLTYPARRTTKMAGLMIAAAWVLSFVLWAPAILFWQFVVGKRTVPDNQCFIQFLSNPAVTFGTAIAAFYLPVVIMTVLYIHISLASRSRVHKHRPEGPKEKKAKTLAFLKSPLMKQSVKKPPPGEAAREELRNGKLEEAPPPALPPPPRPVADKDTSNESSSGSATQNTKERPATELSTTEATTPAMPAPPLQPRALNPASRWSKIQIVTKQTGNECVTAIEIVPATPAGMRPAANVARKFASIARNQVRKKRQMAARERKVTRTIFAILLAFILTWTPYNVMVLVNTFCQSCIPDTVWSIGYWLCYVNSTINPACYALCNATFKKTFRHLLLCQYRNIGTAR
Method: Transfection of cells with muscarinic receptor DNAs (general procedure) NIH 3T3 cells (available from the American Type Culture Collection as ATCC CRL 1658) were grown at 37° C. in a humidified atmosphere (5% CO2) incubator in Dulbecco's modified Eagle's medium (DMEM) supplemented with 4.5 g/l glucose, 4 mM glutamine, 50 units/m1 penicillin, 50 units/m1 streptomycin (available from Advanced Biotechnologies, Inc., Gaithersburg, Md.) and 10% calf serum (available from Sigma, St. Louis, […].). The cells were treated with trypsin-EDTA, spun down and plated at 2×10^6 per 15 cm dish in 20 m1 of DMEM containing 10% calf serum.
The m1-m5 muscarinic receptor subtypes were cloned substantially as described by Bonner et al., Science 237, 1987, p. 527, and Bonner et al., Neuron 1, 1988, p. 403. For the m2 and m4 receptors, the cells were co-transfected with DNA encoding a chimera between the Gq protein and the five carboxy-terminal amino acids of the Gi protein (the Gq-i5 construct is described by Conklin et al., Nature 363, 1993, p.274).
On day one, the cells were transfected using the Superfect transfection reagent (available from Qiagen, Valencia, Calif.) in accordance with the manufacturer's instructions. […]

[1] = target: T2, α-adrenergic receptor subtype 2B (Homo sapiens, UniProt P18089); test: Test against other receptors: α-adrenergic 2B; assay type: cell-based
T2 sequence (P18089 1-450): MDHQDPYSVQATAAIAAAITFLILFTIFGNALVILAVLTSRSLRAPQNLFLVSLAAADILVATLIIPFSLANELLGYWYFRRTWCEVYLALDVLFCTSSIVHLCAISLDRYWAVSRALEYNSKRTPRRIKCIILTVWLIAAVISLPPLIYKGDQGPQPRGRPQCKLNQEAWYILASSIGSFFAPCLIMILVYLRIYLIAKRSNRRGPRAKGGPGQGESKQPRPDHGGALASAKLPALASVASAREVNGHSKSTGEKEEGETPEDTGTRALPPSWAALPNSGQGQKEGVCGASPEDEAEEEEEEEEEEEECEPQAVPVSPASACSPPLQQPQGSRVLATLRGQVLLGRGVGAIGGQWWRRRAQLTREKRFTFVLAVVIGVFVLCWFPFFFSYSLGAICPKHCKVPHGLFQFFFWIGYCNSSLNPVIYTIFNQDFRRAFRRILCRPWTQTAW

CCCCC1CCN(CCCC(=O)c2ccccc2C)CC1 [Compound A, 4-n-Butyl-1-[4-(2-methylphenyl)-4-oxo-1-butyl]piperidine]
antagonism of carbachol-induced responses (m4 receptor): not an antagonist | agonist activity [1]: no significant activity | inhibition of receptor responses (antagonist experiments) [1]: did not inhibit
